{
  "source": "paper PMC11906762",
  "about": "“Toward a high-throughput in vitro model for estimating vitreous humor permeability of topically applied drugs” (Scientific Reports, 2025)",
  "key": {"[1]": {"test": "PAMPA with HA-855 + agar (HA 0.07 w/v%; agar 0.095 w/v%) as acceptor medium", "details": "for permeability decrease with HA-855 + agar compared with agar alone: cationic compounds, acceptor HA-855 + agar vs agar", "procedure": "Finally, the solutions were stored at room temperature overnight.\n(§1) For each assay 3 replicates per compounds were measured.\nIn their study three types of HA-agar hydrogels were investigated with various HA and agar content from rheological and particle migration aspects. Hyaluronate as a viscoelastic polymer is an essential part of the model (as a native component of the VH itself) while agar is used to achieve elasticity and so to mimic the properties of the naturally occurring collagen fibrils. As a result of their study, they found the hydrogel containing 0.7 mg/ml (0.07 w/v%) HA (high molecular weight) and 0.95 mg/ml (0.095 w/v%) agar to be the most similar to bovine VH in the above-mentioned experiments. Since they conducted no permeability measurements with this promising hydrogel, we tested it as an acceptor medium in the PAMPA measurements. To gain further insight, experiments using only agar-containing acceptor phase were also carried out, since the standalone effect of the high molecular weight Na-HA was already investigated."}, "[2]": {"test": "PAMPA with freshly excised porcine vitreous humor as acceptor medium", "type": "in vitro ADME", "details": "250 µM API in PBS; UV detection; also after precipitation and filtering", "procedure": "as §1\nThere has been an attempt made to use freshly excised porcine vitreous as acceptor medium in the experiments, for three APIs with sufficient absorption at a wavelength closer to the visible range (~ 300 nm) considering the cut-off of VH. […] When preparing the equilibrium solutions, one unit of API solution (250 µM, PBS) was mixed with (approximately) two units of VH. […] To gain clear spectra by removing background components, precipitation was attempted using cold acetonitrile, centrifugation, and filtration. […] The sample preparation process of VH containing samples was not further improved or investigated in this study."}, "[3]": {"test": "Modified corneal-PAMPA, PBS as acceptor medium, UV-vis plate reader", "type": "in vitro ADME", "details": "general trend regardless of the acceptor medium"}, "[4]": {"test": "PAMPA with HA-200 (0.1 w/v%) as acceptor medium", "details": "HA (HA-200, HA-855; 0.1 w/v%) as acceptor-phase component; very low permeability and interference of HA with absorbance signal"}, "[5]": {"test": "Solubility in PBS buffer (pH 7.4) for PAMPA donor solutions", "type": "physicochemical", "details": "PBS pH 7.4; used at 100 µM instead of 250 µM nominal concentration"}},
  "note": "Where a name gives a salt, the structure may show the parent alone.",
  "data": [
    {"smiles": "CNCC[C@H](Oc1cccc2ccccc12)c1cccs1", "note": "[duloxetine HCl, duloxetine hydrochloride]", "values": [
      {"measurement": "permeability decrease with HA-855 + agar compared with agar alone", "setting": "[1]", "result": "decrease the permeability in a greater extent than agar alone"}
    ]},
    {"smiles": "COc1c(N2C[C@@H]3CCCN[C@@H]3C2)c(F)cc2c(=O)c(C(=O)O)cn(C3CC3)c12", "note": "[moxifloxacin, moxifloxacin hydrochloride]", "values": [
      {"measurement": "detection of API in porcine vitreous humor acceptor medium", "setting": "[2]", "result": "no API could be detected"},
      {"measurement": "permeability (qualitative)", "setting": "[3]", "result": "low permeability"}
    ]},
    {"smiles": "CCn1cc(C(=O)O)c(=O)c2cc(F)c(N3CCNCC3)nc21", "note": "[enoxacin]", "values": [
      {"measurement": "detection in the acceptor medium", "setting": "[4]", "result": "could not be detected in the acceptor medium"}
    ]},
    {"smiles": "CC(C)(C)NC[C@H](O)COc1nsnc1N1CCOCC1", "note": "[timolol, timolol maleate]", "values": [
      {"measurement": "permeability decrease with HA-855 + agar compared with agar alone", "setting": "[1]", "result": "decrease the permeability in a greater extent than agar alone"}
    ]},
    {"smiles": "O=C(O)Cc1ccccc1Nc1c(Cl)cccc1Cl", "note": "[diclofenac Na]", "values": [
      {"measurement": "direction of permeability change against corneal-PAMPA (PBS)", "setting": "[1]; acceptor HA-855 + agar", "result": "significant increase"}
    ]},
    {"smiles": "CNC(=C[N+](=O)[O-])NCCSCc1ccc(CN(C)C)o1", "note": "[ranitidine, ranitidine hydrochloride]", "values": [
      {"measurement": "detection in the acceptor medium", "setting": "[4]", "result": "could not be detected in the acceptor medium"}
    ]},
    {"smiles": "NC(=O)N1c2ccccc2C=Cc2ccccc21", "note": "[carbamazepine]", "values": [
      {"measurement": "solubility (qualitative)", "setting": "[5]", "result": "poor solubility"}
    ]},
    {"smiles": "CCN(CC)CCCC(C)Nc1ccnc2cc(Cl)ccc12", "note": "(centres unmarked) [chloroquine diphosphate]", "values": [
      {"measurement": "permeability decrease with HA-855 + agar compared with agar alone", "setting": "[1]", "result": "decrease the permeability in a greater extent than agar alone"}
    ]},
    {"smiles": "CCCCNc1ccc(C(=O)OCCN(C)C)cc1", "note": "[tetracaine HCl, tetracaine hydrochloride]", "values": [
      {"measurement": "permeability decrease with HA-855 + agar compared with agar alone", "setting": "[1]", "result": "decrease the permeability in a greater extent than agar alone"}
    ]},
    {"smiles": "C[C@@H]1C[C@H]2[C@@H]3CCC4=CC(=O)C=C[C@]4(C)[C@@]3(F)[C@@H](O)C[C@]2(C)[C@@]1(O)C(=O)CO", "note": "[dexamethasone]", "values": [
      {"measurement": "detection in the acceptor medium", "setting": "[4]", "result": "could not be detected in the acceptor medium"},
      {"measurement": "solubility (qualitative)", "setting": "[5]", "result": "poor solubility"}
    ]},
    {"smiles": "N=C(N)c1ccc(OCCCOc2ccc(C(=N)N)cc2)cc1", "note": "[propamidine]", "values": [
      {"measurement": "detection in the acceptor medium", "setting": "[4]", "result": "could not be detected in the acceptor medium"}
    ]},
    {"smiles": "O=C(c1ccccc1)c1ccc2n1CCC2C(=O)O", "note": "(centres unmarked) [ketorolac]", "values": [
      {"measurement": "detection of API in porcine vitreous humor acceptor medium", "setting": "[2]", "result": "no API could be detected"},
      {"measurement": "permeability (qualitative)", "setting": "[3]", "result": "low permeability"}
    ]},
    {"smiles": "CCCCOc1cc(C(=O)OCCN(CC)CC)ccc1N", "note": "[oxybuprocaine HCl, oxybuprocaine hydrochloride]", "values": [
      {"measurement": "permeability decrease with HA-855 + agar compared with agar alone", "setting": "[1]", "result": "decrease the permeability in a greater extent than agar alone"}
    ]},
    {"smiles": "CC(C)NCC(O)COc1cccc2ccccc12", "note": "(centres unmarked) [propranolol HCl, propranolol hydrochloride]", "values": [
      {"measurement": "permeability decrease with HA-855 + agar compared with agar alone", "setting": "[1]", "result": "decrease the permeability in a greater extent than agar alone"}
    ]}
  ]
}
